We go through 13 molecules from patent publication US8389555B2, “Medicaments” (Motac Neuroscience Limited, priority 2007, dated 2013).

Series [1] addresses T1, human dopamine D3 receptors (Homo sapiens, UniProt P35462).
T1 construct: expressed in transfected cells
The experiment in a line: Dopamine D3 receptor binding assay ([3H]spiperone, CHO cell membranes). Particulars: for Ki: human D3 receptors in CHO cells, 0.2 nM [3H]spiperone, mean ± SEM, read-out: Affinity Ki (D3); for Selectivity Ki(D2)/Ki(D3): ratio of Ki(D2) to Ki(D3). As for the experimental part:
(§1) Compounds synthesized in Examples A, B, C and D were assayed to test their affinity for dopamine D3 and D2 receptors.
(§2) METHODS: Dopamine D2S and D3 Receptor Binding Assays
Human D3 receptors stably expressed in CHO cells were used as described by Sokoloff et al. (Sokoloff, P. et al., Eur. J. Pharmacol. 1992, 225, 331-337). The cell line was cultured in Dulbecco's modified Eagle's medium supplemented with 2 mM glutamine, and 10% dialyzed fetal bovine serum, and were grown in an atmosphere of 5% CO2 at 37° C. (Gibco™).
(§3) Human D2S- and D3 receptors expressing cell lines were grown to confluence. The medium was removed, and the cells were washed with 10 ml PBS buffer (140 mM NaCl, 3 mM KCl, 1.5 mM KH2PO4, 8 mM Na2HPO4, pH 7.4) at 4° C. After removing the wash buffer, the cells were scraped from the flasks into 15 ml of ice-cold media, and centrifuged at 3,000 rpm for 10 minutes at 4° C. After centrifugation the medium was removed and the […] resuspended in ice-cold Tris-HCl buffer containing 5 mM MgCl2, pH 7.4 and disrupted with a Polytron and centrifuged at 20,000 rpm, for 30 minutes at 4° C. The pellet was resuspended by sonication in ice-cold Tris-HCl buffer (containing 5 mM MgCl2, pH 7.4), membrane aliquots were stored at −70° C. Determination of membrane protein was carried out by the method of Bradford (Bradford, M. M. Anal Biochem 1976, 72, 248-54).
(§4) Cell membranes containing human D2S and D3 receptors from CHO cells were thawed, rehomogenized with sonication at 4° C. in Tris-HCl, pH 7.4 containing 120 mM NaCl, 5 mM KCl, 2 mM CaCl2 and 1 mM MgCl2 (incubation buffer), and incubated with 0.2 nM [^3H]spiperone (106 Ci·mmol^−1, Amersham Biosciences, Freiburg, Germany), and drug diluted in incubation buffer. Non-specific binding was determined in the presence of 10 μM BP 897 ((Wermuth, C. G. et al. in Chem. Abstr. (Eur. Pat. 0779284, 1997)). Incubations were run at 25° C. for 120 min, and terminated by rapid filtration through PerkinElmer GF/B glass fibre filters (PerkinElmer Life Sciences, Rodgau, Germany) coated in 0.3% polyethylenimine (Sigma-Aldrich, Taufkirchen, Germany) using an Inotech cell harvester (Inotech AG, Dottikon, Switzerland). Unbound radioligand was removed with four washes of 1 ml of ice-cold 50 mM Tris-HCl buffer, pH 7.4, containing 120 mM NaCl. The filters were soaked in 9 ml Beta plate scint scintillator and counted using a PerkinElmer MicroBeta®Trilux scintillation counter (PerkinElmer Life Sciences). Competition binding data were analyzed by the software GraphPad Prism™ (2000, version 3.02, San Diego, Calif., USA), using non-linear least squares fit. For detailed screening the compounds have been tested at seven concentrations in triplicate carrying out three to five separate binding experiments for human dopamine D2S and for human dopamine D3 receptors and expressed as mean±standard error of the mean (SEM). Ki values were calculated from the IC50 values according to Cheng-Prusoff equation (Cheng, Y. C., Prusoff, W. H. Biochem. Pharmacol. 1973, 22, 3099-3108.).

Series [2] has as its target T2, recombinant human D2(short) dopamine receptor (Homo sapiens, UniProt P14416).
T2 construct: expressed in transfected cells; host or cells: CHO-D2S cells (per Hayes et al. 1992)
Nature of the series: Dopamine D2S receptor binding assay ([3H]spiperone, CHO cell membranes). Particulars: human D2S receptors in CHO cells, 0.2 nM [3H]spiperone, mean ± SEM; read-out: Affinity Ki (D2). As for the experimental part:
as §1, §2
CHO-D2S cells, expressing the recombinant human D2(short) dopamine receptor gene, (Hayes, G. et al., J. Mol. Endocrinol. 1992, 6, 920-926) were grown in Dulbecco's modified Eagle's medium/nutrient mixture F12 1:1 mixture supplemented with 2 mM glutamine, 10% fetal bovine serum, and 10 μl·ml^−1 penicillin/streptomycin in an atmosphere of 5% CO2 at 37° C. (Gibco™, Karlsruhe, Germany).
as §3, §4

The subject of series [3] is 6-OHDA-lesioned rat model of Parkinson's disease. The experiment in a line: Rotational behaviour in 6-OHDA-lesioned rat model of Parkinson's disease. Particulars: for onset and persistence of activity: following oral or intra-peritoneal application, FIGS. 12, 16, 17; for onset of action / short or long acting in vivo: in vivo model. In kind it is in vivo. As for the experimental part: Preparation of 6-OHDA-Lesioned Rat Model of Parkinson's Disease
Male Sprague-Dawley rats weighing 290-350 g were used. The rats were housed in a temperature-controlled room under a 12 hour light/dark cycle with free access to food and water. Thirty minutes prior to surgery, the animals were given the monoamine oxidase-B inhibitor pargyline (5 mg/kg i.p.;) and the noradrenaline uptake inhibitor desipramine (25 mg/kg i.p.). The rats were then placed under general anaesthesia (Flourothane) and immobilised in stereotaxic frame. Following reflection of cranial skin and periostium, a small bur-hole was made in the skull on the right side and a small puncture was made in the dura mater. Each animal then received a unilateral injection of 2.5 μl of the neurotoxin 6-hydroxydopamine hydrobromide (6-OHDA HBr; 5 mg/ml in sterile water with 0.1% ascorbic acid; i.e. 12.5 μg 6-OHDA per rat) into the right medial forebrain bundle at stereotaxic co-ordinates −2.8 mm from bregma, 2 mm lateral to the midline, and 9 mm below the skull. The 6-OHDA injection was made over a 5 minute period using a 5 μl Hamilton syringe. The rats were allowed to recover for 3 weeks following the lesion. Animals then received 0.05 mg/kg s.c. apomorphine to assess the extent of lesion. Animals displaying clear rotational behaviour directed contralateral to the lesioned side were selected for further studies.
Only lesioned animals were used in the study (as determined by apomorphine rotation).
Animals were administered a dose of the test compound at 1 mg/kg or 3 mg/kg (i.p.) and rotational behaviour was assessed for up to 4 hours following drug administration using automated rotometers. Alternatively, animals were administered a dose of the test compound at 10 mg/kg (p.o.) and rotational behaviour was assessed for up to 8 hours following drug administration using automated rotometers.
Each compound was administered to at least 5 rats.
Total net rotational activity. This parameter is calculated as the total number of 180° rotations (net contralateral) over the duration of the experiment.
Data were analysed independently for each novel compound with appropriate parametric statistics. All tests were carried out in Graphpad Prism Version 3.

For series [4] the following is noted: patients treated with pramipexole; cited from earlier work.

Structures are written as SMILES. Counter-ions that a name gives are not always drawn.

T1 sequence (P35462 whole entry): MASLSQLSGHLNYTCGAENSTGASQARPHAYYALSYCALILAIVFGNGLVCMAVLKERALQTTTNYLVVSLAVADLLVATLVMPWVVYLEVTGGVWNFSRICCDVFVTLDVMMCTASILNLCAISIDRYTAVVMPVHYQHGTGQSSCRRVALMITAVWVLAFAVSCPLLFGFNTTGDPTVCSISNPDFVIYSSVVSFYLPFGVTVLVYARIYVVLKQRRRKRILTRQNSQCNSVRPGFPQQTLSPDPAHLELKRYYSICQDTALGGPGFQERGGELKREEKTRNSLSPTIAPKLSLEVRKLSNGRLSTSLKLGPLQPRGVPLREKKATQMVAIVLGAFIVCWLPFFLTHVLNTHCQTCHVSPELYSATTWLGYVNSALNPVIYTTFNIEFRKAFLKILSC
T2 sequence (P14416 1-414 isoform P14416-2): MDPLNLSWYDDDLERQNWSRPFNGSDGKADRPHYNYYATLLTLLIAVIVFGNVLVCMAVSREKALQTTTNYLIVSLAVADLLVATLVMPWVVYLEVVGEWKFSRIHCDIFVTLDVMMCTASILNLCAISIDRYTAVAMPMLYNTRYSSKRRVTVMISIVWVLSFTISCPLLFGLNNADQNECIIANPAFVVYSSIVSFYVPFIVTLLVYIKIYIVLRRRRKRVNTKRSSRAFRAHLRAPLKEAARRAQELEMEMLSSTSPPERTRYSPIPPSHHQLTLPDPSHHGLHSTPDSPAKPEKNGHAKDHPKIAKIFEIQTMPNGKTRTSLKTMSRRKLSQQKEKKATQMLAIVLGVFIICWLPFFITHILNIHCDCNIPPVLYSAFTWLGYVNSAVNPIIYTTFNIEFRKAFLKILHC

Regarding `CCCN(Cc1ccc(C(=O)N2CCN(c3ccccc3)CC2)cc1)C1CCc2ncsc2C1` (centres unmarked) [Compound 43, (4-Phenylpiperazin-1-yl)-(4-{[propyl-(4,5,6,7-tetrahydrobenzothiazol-6-yl)amino]methyl}phenyl)methanone], the melting point is 70 °C. In series [1], the Ki worked out at 29.4 ± 7.5 nM and the “Selectivity Ki(D2)/Ki(D3)” value amounted to 49. Besides, the inhibition constant (Ki) in series [2] is 1440 ± 273 nM.
As to `CCN(CCN(CC)C1CCc2ncsc2C1)C1CCc2ncsc2C1` (centres unmarked) [Compound 33, N,N′-Diethyl-N,N′-bis-(4,5,6,7-tetrahydro-benzothiazol-6-yl)-ethane-1,2-diamine], the Ki in series [1] stood at 22.7 ± 13.5 nM; in series [2] it was 468 ± 13.5 nM. In addition, in series [1], the “Selectivity Ki(D2)/Ki(D3)” value turned out to be 19. Moreover, the “onset and persistence of activity” value in series [3] was “rapid onset of activity and also have a sustained effect”.
`CCCN(Cc1ccc(C(=O)NC2Cc3ccccc3C2)cc1)C1CCc2ncsc2C1` (centres unmarked) [Compound 44, N-Indan-2-yl-4-{[propyl-(4,5,6,7-tetrahydrobenzothiazol-6-yl)amino]methyl}benzamide]: the melting point worked out at 65 °C. Also, in series [1], the inhibitory constant (Ki) was 836 ± 211 nM and the “Selectivity Ki(D2)/Ki(D3)” value was 19. Further, the inhibition constant Ki in series [2] worked out at 16100 ± 8850 nM.
On to `CCCN(CCN1CCN(C(=O)c2cccc3ccccc23)CC1)C1CCc2ncsc2C1` (centres unmarked) [Compound 39, [2-(4-Naphthoyl-piperazin-1-yl)-ethyl]-propyl-(4,5,6,7-tetrahydro-benzothiazol-6-yl)-amine], for which, in series [1], the Ki amounted to 12.9 ± 3.8 nM and the “Selectivity Ki(D2)/Ki(D3)” value worked out at 247. The inhibitory constant (Ki) in series [2] worked out at 3180 ± 1730 nM. In series [3], the onset of action result is “fast acting” and the “short or long acting in vivo” value is “short acting”.
Consider `CCCN(CCCCC(=O)NC12CC3CC(CC(C3)C1)C2)C1CCc2ncsc2C1` (centres unmarked) [Compound 68, N-Adamantanyl-5-(propyl-(4,5,6,7-tetrahydrobenzothiazol-6-yl)amino)pentanamide], for which, in series [1], the inhibition constant (Ki) came out at 1.54 ± 0.46 nM and the “Selectivity Ki(D2)/Ki(D3)” value is reported as 297. In addition, the Ki in series [2] came to 457 ± 228 nM. The “onset and persistence of activity” value in series [3] is reported as “sustained activity over a number of hours”.
As to `CCCN(CCN1CCN(c2cccc(Cl)c2Cl)CC1)C1CCc2ncsc2C1` (centres unmarked) [Compound 35, {2-[4-(2,3 -Dichloro-phenyl)-piperazin-1-yl]-ethyl}-propyl-(4,5,6,7-tetrahydro-benzothiazol-6-yl)-amine], the melting point stood at 103.5 °C. Further, in series [1], the Ki is 21.7 ± 10.6 nM and the “Selectivity Ki(D2)/Ki(D3)” value was 2. Moreover, in series [2], the Ki came to 61.3 ± 19.1 nM.
With `CCCN(CCN1CCN(c2ccccc2OC)CC1)C1CCc2ncsc2C1` (centres unmarked) [Compound 34, {2-[4-(2-Methoxy-phenyl)-piperazin-1-yl]-ethyl}-propyl-(4,5,6,7-tetrahydro-benzothiazol-6-yl)-amine], in series [1], the inhibition constant Ki amounted to 4.5 ± 0.7 nM and the “Selectivity Ki(D2)/Ki(D3)” value is 29. For the same molecule, the Ki in series [2] came out at 132 ± 40 nM. Further, in series [3], the “onset and persistence of activity” value is “rapid onset of activity and also have a sustained effect”; the onset of action entry is “fast acting”. Also, in series [3] (i.p. at 1 and 3 mg/kg), the “action at increasing doses” value is on record as “substantially constant action”.
On to `CCCN(CCCCC(=O)Nc1ccc2ccccc2c1)C1CCc2ncsc2C1` (centres unmarked) [Compound 9, 5-[Propyl-(4,5,6,7-tetrahydro-benzothiazol-6-yl)-amino]-pentanoic acid naphthalen-2-ylamide], for which, in series [1], the Ki was found to be 0.55 ± 0.19 nM and the “Selectivity Ki(D2)/Ki(D3)” value is recorded as 542. In series [2], the Ki turned out to be 299 ± 38 nM. Further, in series [3], the onset of action entry is on record as “fast acting” and the “short or long acting in vivo” value is “short acting”.
Consider `CCCN[C@H]1CCc2nc(N)sc2C1` [pramipexole, (S)-2-amino-4,5,6,7-tetra-hydro-6-(propylamino)benzothiazole dihydrochloride mono-hydrate], for which, in series [4], the “patients who may develop oedema” value is on record as 1-10%.
Turning to `CCCN(CCCCNC(=O)N1CCc2cc(OC)c(OC)cc2C1)C1CCc2ncsc2C1` (centres unmarked) [Compound 25, 6,7-Dimethoxy-3,4-dihydro-1H-isoquinoline-2-carboxylic acid {4-[propyl-(4,5,6,7-tetrahydro-benzothiazol-6-yl)-amino]-butyl}-amide], in series [1], the Ki was 2.67 ± 1.32 nM and the “Selectivity Ki(D2)/Ki(D3)” value was found to be 2850. Besides, the inhibition constant (Ki) in series [2] worked out at 7610 ± 1810 nM. Further, the “short or long acting in vivo” value in series [3] is “short acting”.
The matching figures for `CCCN(CCCCNC(=O)N1CCc2ccccc2C1)C1CCc2ncsc2C1` (centres unmarked) [Compound 24, 3,4-Dihydro-1H-isoquinoline-2-carboxylic acid {4-[propyl-(4,5,6,7-tetrahydro-benzothiazol-6-yl)-amino]-butyl}-amide]: 3.95 ± 1.17 nM, 394, 1560 ± 464 nM and “short acting”.
As for `CCCN(Cc1ccc(C(=O)N(CCC)C2CCc3ncsc3C2)cc1)C1CCc2ncsc2C1` (centres unmarked) [Compound 42, N-Propyl-4-{[propyl-(4,5,6,7-tetrahydrobenzothiazol-6-yl)amino]methyl}-N-(4,5,6,7-tetrahydrobenzothiazol-6-yl)benzamide], the melting point worked out at 85 °C. Further, in series [1], the Ki came out at 631 ± 388 nM and the “Selectivity Ki(D2)/Ki(D3)” value came out at 26. The Ki in series [2] was found to be 16700 ± 3380 nM.
Turning to `CCCN(CCCCC(=O)NC1Cc2ccccc2C1)C1CCc2ncsc2C1` (centres unmarked) [Compound 67, N-(2,3-dihydro-1H-inden-2-yl)-5-(propyl-(4,5,6,7-tetrahydrobenzothiazol-6-yl)amino)pentanamide], in series [1], the Ki worked out at 0.9 ± 0.05 nM and the “Selectivity Ki(D2)/Ki(D3)” value is 1550. Besides, in series [2], the Ki was determined as 1390 ± 304 nM. Further, in series [3], the “short or long acting in vivo” value is “short acting”.
